The target in one experiment is T1, MAO-A (Homo sapiens, UniProt P21397).
T1 sequence (P21397 1-527): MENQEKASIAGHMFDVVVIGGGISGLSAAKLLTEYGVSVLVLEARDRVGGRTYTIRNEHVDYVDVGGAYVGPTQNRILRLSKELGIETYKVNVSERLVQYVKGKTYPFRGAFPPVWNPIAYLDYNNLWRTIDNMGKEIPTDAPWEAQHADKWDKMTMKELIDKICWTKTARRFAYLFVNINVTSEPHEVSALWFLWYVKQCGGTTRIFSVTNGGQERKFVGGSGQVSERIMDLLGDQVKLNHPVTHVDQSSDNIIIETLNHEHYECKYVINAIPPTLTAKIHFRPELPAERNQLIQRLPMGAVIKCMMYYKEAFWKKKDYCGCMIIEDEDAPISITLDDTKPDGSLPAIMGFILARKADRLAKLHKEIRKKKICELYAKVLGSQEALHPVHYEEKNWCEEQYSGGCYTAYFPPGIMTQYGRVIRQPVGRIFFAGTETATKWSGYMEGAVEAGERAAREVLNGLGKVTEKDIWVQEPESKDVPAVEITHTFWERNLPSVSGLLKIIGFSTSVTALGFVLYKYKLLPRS
Kind of experiment: MAO-A inhibition (Table 1). It counts as biochemical.

Experiment [1] deals with T2, human-derived monoamine oxidase B (Homo sapiens, UniProt P27338).
T2 sequence (P27338 1-520): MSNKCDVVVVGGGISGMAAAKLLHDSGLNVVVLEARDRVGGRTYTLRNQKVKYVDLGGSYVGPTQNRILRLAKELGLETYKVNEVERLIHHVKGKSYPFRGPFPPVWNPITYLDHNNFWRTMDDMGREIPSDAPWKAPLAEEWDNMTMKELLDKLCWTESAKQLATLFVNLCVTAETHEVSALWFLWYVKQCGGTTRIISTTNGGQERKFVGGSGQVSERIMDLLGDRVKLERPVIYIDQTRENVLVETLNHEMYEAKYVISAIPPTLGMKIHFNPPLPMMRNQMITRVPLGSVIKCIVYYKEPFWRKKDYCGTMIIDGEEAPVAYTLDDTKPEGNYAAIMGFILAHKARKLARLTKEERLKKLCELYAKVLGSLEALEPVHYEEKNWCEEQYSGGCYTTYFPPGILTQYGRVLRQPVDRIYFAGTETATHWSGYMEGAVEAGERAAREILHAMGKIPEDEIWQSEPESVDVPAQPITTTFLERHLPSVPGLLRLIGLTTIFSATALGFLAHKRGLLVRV
Description: Effect of inhibiting activity of monoamine oxidase B (MAO-B assay). The following applies: Amplex Red, benzylamine substrate. Format: biochemical.

Experiment [2] relates to APP/PS1 mouse. Conditions: Jo et al., Nature Medicine 2014, cited from earlier work.
Experiment [3] relates to dopaminergic neurons in the substantia nigra and the corpus striatum. Kind of experiment: MPTP mouse model of Parkinson's disease, TH (tyrosine hydroxylase) immunohistochemistry. It counts as in vivo. The following applies: for dopaminergic neuron survivability (TH expression), pre-treatment: from one day before MPTP 20 mg/kg i.p., FIG. 2a.
For experiment [4], the system named is DGGCs (dentate gyrus granule cells) of the hippocampus. Kind of experiment: Inhibition of channel excitability, electrophysiology. It counts as cell-based. Conditions: FIG. 4. From the text: In order to investigate the channel inhibitory effect, inhibition of channel excitability was investigated electrophysiologically using DGGCs (dentate gyrus granule cells) of the hippocampus.

For experiment [5], the target named is T2, human-derived monoamine oxidase B. Kind of experiment: Confirmation of reversible inhibitory effect (washing in centrifugal filter). Format: biochemical.
The subject of another experiment is obesity model mouse. Description: HFD (high-fat diet) mouse model of obesity. It counts as in vivo. The procedure:
7-week-old mice were divided into 2 groups and were given a normal diet (white, chow) and a high-fat diet (blue, HFD), respectively, for 8 weeks.
The total calorie provided to the normal diet mice and the high-fat diet mice was set to be equal. The average body weight of the normal diet group was measured to be […] at 8 weeks, with about 20% increase from the initial weight of […]. In contrast, the average body weight of the high-fat diet almost doubled to about […].
In addition to the increase in reactive astrocytes, overproduction of γ-aminobutyric acid (GABA) was also detected.

Experiment [6] concerns APP/PS1 mouse. Description: APP/PS1 mouse model of Alzheimer's disease, spike probability of dentate gyrus granule cells. It counts as in vivo. Conditions: 2 weeks in drinking water.
The mark [7] stands for this setting: 10 mg/kg oral, treated from day 3 after MPTP, FIG. 2b.
Setting [8] is: administration for 30 days, FIG. 2c.

Molecules are shown by their SMILES. Like-named read-outs stand apart in the source and are kept apart here.

Usually IC50 stands for the point on the concentration scale where inhibition reaches its midpoint. For `C[C@@H](NCc1ccc(-c2ccc(C(F)(F)F)cc2)cc1)C(N)=O` [Example 15, (R)-2-(((4′-trifluoromethylbiphenyl-4-yl)methyl)amino)propanamide methanesulfonate], at MAO-A, the IC50 was > 100 µM.
As for `C[C@H](NCc1ccc(-c2cccc(OC(F)(F)F)c2)cc1)C(N)=O` [Example 10, (S)-2-(((3′-trifluoromethoxybiphenyl-4-yl)methyl)amino)propanamide methanesulfonate], the IC50 in experiment [1] is 0.216 µM; at MAO-A, > 100 µM.
On to `NC(=O)CNCc1ccc(-c2ccc(C(F)(F)F)cc2)cc1` [Example 16, (R)-2-(((4′-trifluoromethylbiphenyl-4-yl)methyl)amino)acetamide methanesulfonate], for which the figures for the IC50 (in experiment [1]; at MAO-A) were 0.126 µM and > 100 µM, respectively.
With `C[C@H](NCc1ccc(OCc2cccc(F)c2)cc1)C(N)=O` [S-Safinamide, Safinamide, reference compound], the “efficacy in the Alzheimer's disease model after 2 weeks” value with APP/PS1 mouse [2] was “maintains excellent efficacy”. The “dopaminergic neuron survivability (TH expression), pre-treatment” value in experiment [3] (10 mg/kg oral) was “dopaminergic neuron survivability comparable to that of the control group”. Also, in experiment [3] (setting [7]), the “death of dopaminergic neurons, post-treatment” value was “significantly decreased death of the neurons”. The “protection of dopaminergic neurons in the corpus striatum, 30-day administration” value in experiment [3] (setting [8]) was “slightly lower efficacy”. Moreover, the inhibition at 10 µM in experiment [4] (10 μM, read-out: excitability inhibitory effect) is ~40%.
For the molecule `CC(C)[C@@H](NCc1ccc(-c2ccc(C(F)(F)F)cc2)cc1)C(N)=O` [Example 17, (R)-3-methyl-2-(((4′-trifluoromethylbiphenyl-4-yl)methyl)amino)butanamide methanesulfonate], the IC50 is 4.07 µM in experiment [1] and > 100 µM against MAO-A.
As to `C[C@H](NCc1ccc(-c2ccccc2Cl)cc1)C(N)=O` [Example 4, (S)-2-(((2′-chlorobiphenyl-4-yl)methyl)amino) propanamide methanesulfonate], the 50% inhibitory concentration (IC50) was > 10 µM in experiment [1] and > 100 µM against MAO-A.
For `C[C@H](NCc1ccc(-c2ccc(OC(F)(F)F)cc2)cc1)C(N)=O` [Example 11, (S)-2-(((4′-trifluoromethoxybiphenyl-4-yl)methyl)amino)propanamide methanesulfonate], the results for the IC50 (in experiment [1]; at MAO-A) were 0.098 µM and > 100 µM, respectively.
Turning to `C[C@H](NCc1ccc(-c2cccc(Cl)c2)cc1)C(N)=O` [Example 5, (S)-2-(((3′-chlorobiphenyl-4-yl)methyl)amino) propanamide methanesulfonate], the IC50 in experiment [1] was 0.442 µM; at MAO-A, > 100 µM.
Take `C[C@H](NCc1ccc(-c2ccc(Cl)cc2)cc1)C(N)=O` [Example 6, (S)-2-(((4′-chlorobiphenyl-4-yl)methyl)amino) propanamide methanesulfonate]: the IC50 in experiment [1] was 0.416 µM; on MAO-A, > 100 µM.
Turning to `C#CCN(C)[C@H](C)Cc1ccccc1` [Selegiline], the “efficacy in the Alzheimer's disease model after 2 weeks” value in the experiment with APP/PS1 mouse [2] is on record as “the efficacy decreases greatly”. Moreover, the “efficacy in the Alzheimer's disease model after 4 weeks” value with APP/PS1 mouse [2] (after 4 weeks) is “no efficacy is observed”. Also, the “efficacy in the Alzheimer's disease model, initially” value in the experiment with APP/PS1 mouse [2] (initial) is listed as “excellent efficacy initially”.
In the case of `C[C@H](NCc1ccc(-c2ccccc2F)cc1)C(N)=O` [Example 1, (S)-2-(((2′-fluorobiphenyl-4-yl)methyl)amino) propanamide methanesulfonate], in experiment [1], the concentration for half-maximal inhibition (IC50) is > 10 µM.
`C[C@@H](NCc1ccc(-c2cccc(F)c2)cc1)C(N)=O` [Example 14, methanesulfonate]: the IC50 is > 10 µM in experiment [1] and > 100 µM at MAO-A.
Consider `CC(C)C[C@@H](NCc1ccc(-c2ccc(C(F)(F)F)cc2)cc1)C(N)=O` [Example 18, (R)-4-methyl-2-(((4′-trifluoromethylbiphenyl-4-yl)methyl)amino)pentanamide methanesulfonate], for which the IC50 in experiment [1] is 5.3 µM; against MAO-A, > 100 µM.
For the molecule `C[C@H](NCc1ccc(-c2ccc(C(F)(F)F)cc2)cc1)C(N)=O` [Example 9, (S)-2-(((4′-trifluoromethylbiphenyl-4-yl)methyl)amino) propanamide methanesulfonate], the Reversibility result in experiment [5] (1 μM) is recorded as “Reversible”. Also, the “Recovered MAO-B activity” value in experiment [5] (1 μM, after washing) is listed as >85%. The inhibition at 1 µM in experiment [5] (after centrifugal filter and washing with buffer (B), read-out: B. MAO-B inhibition effect) is < 15%; in experiment [5] (without washing (A), read-out: A. MAO-B inhibition effect), 82%. The “dopaminergic neuron survivability (TH expression), pre-treatment” value in experiment [3] (10 mg/kg oral) is “dopaminergic neuron survivability comparable to that of the control group”. The “death of dopaminergic neurons, post-treatment” value in experiment [3] (setting [7]) is on record as “significantly decreased death of the neurons”. Further, in experiment [3] (10 mg/kg oral, treated from day 3 after MPTP, substantia nigra, FIG. 2b), the “recovery of dopaminergic neurons in the substantia nigra, post-treatment” value is recorded as “recovered the dopaminergic neurons in the substantia nigra to a level comparable to that of the control group not treated with MPTP”. Besides, the “protection of dopaminergic neurons in the corpus striatum, 30-day administration” value in experiment [3] (setting [8]) is “protected dopaminergic neurons to a level comparable to that of the control group not treated with MPTP”. In addition, in experiment [3] (administration for 30 days, substantia nigra, FIG. 2c), the “protection of dopaminergic neurons in the substantia nigra, 30-day administration” value is recorded as “protected neurons similarly to the control group”. In experiment [3] (compared with selegiline and safinamide), the “overall efficacy in the three tests on the MPTP mouse model” value is “superior efficacy as compared to selegiline and safinamide”. The IC50 on MAO-A was > 500 µM. In addition, the “body weight increase due to high-fat diet” value in the experiment on obesity model mouse (10 mg/kg/day and 100 mg/kg/day groups, FIG. 8) is recorded as “inhibited body weight increase due to the intake of the high-fat diet in a concentration-dependent manner”. The “amount of food intake” value with obesity model mouse (high-fat diet mice, FIG. 8) is on record as “no difference in the amount of food intake”. In addition, the “GFAP (biomarker for reactive astrocytes) in the arcuate nucleus” value in the experiment with obesity model mouse (high-fat diet mice, FIG. 9) is “Remarkable decrease in GFAP”. In addition, the “overproduction of GABA in the arcuate nucleus” value in the experiment with obesity model mouse (high-fat diet mice, FIG. 9) was “effective inhibition of the overproduction of GABA”. In addition, the excitability inhibitory effect entry in experiment [4] (10 μM) is recorded as “almost no inhibitory effect”; in experiment [4] (50 μM), “lower inhibitory effect than safinamide”. Moreover, in the experiment with APP/PS1 mouse [6], the “efficacy (spike probability) compared with safinamide” value was “higher than that of safinamide”. Also, in the experiment on APP/PS1 mouse [6] (FIG. 3b), the “spike probability depending on stimulus intensity” value is “superior efficacy was observed”.
Consider `COc1cccc(-c2ccc(CN[C@@H](C)C(N)=O)cc2)c1` [Example 12, (S)-2-(((3′-methoxybiphenyl-4-yl)methyl)amino)propanamide methanesulfonate], for which the IC50 is 3.33 µM in experiment [1] and > 100 µM against MAO-A.
Consider `C[C@H](NCc1ccc(-c2ccc(F)cc2)cc1)C(N)=O` [Example 3, (S)-2-(((4′-fluorobiphenyl-4-yl)methyl)amino) propanamide methanesulfonate], for which, in experiment [1], the concentration for half-maximal inhibition (IC50) is > 10 µM.
For the molecule `C[C@H](NCc1ccc(-c2cccc(F)c2)cc1)C(N)=O` [Example 2, (S)-2-(((3′-fluorobiphenyl-4-yl)methyl)amino) propanamide methanesulfonate], the IC50 in experiment [1] was > 10 µM.
As to `COc1ccc(-c2ccc(CN[C@@H](C)C(N)=O)cc2)cc1` [Example 13, (S)-2-(((4′-methoxybiphenyl-4-yl)methyl)amino)propanamide methanesulfonate], the IC50 is 1.06 µM in experiment [1] and > 100 µM against MAO-A.

Values taken from patent US11053190B2, “Alpha-aminoamide derivative compound and pharmaceutical composition comprising same” (NEUROBIOGEN CO., LTD., priority 2014, dated 2021).
